Assays:
[1] = tested on: Liver Injuries caused by D-galactosamine in Rats; assay: Inhibitory effect against liver injuries caused by D-galactosamine in rats; assay type: in vivo, Rats (SD, male); conditions: D-galactosamine i.p., serum 24 h
Excerpt: The hepatoprotective effect of the compound of formula (1) was also identified by D-galactosamine model(see, Koji Hase et al., Biol. Pharm. Bull., 20, 4, 381-385, 1997; Jun-ichi Nagakawa et al., J. Pharmacology and Experimental Therapeutics, 264, 1, 1992; Toxicology of the Liver, Raven Press, New York, 1985). The N-acyl galactosamine resulted from the excess administration of D-galactosamine acts as a substrate for UDP-galactosamine or UDP-N-acyl galactosamine. But, the inordinate synthesis of […] and UDP-hexosamine may inhibit the binding of UTP in the liver cells and biosynthsis of UDP-glucose and UDP-galactose, which finally causes the structural and functional changes of the liver cell membranes. Consequently, it results in sporadic necrosis and the increase of ALT and AST values in blood. Since the toxicity caused by D-galactosamine looks similar to the symptoms of viral hepatitis, D-galactosamine model is also used conventionally as a model for viral hepatitis.
(§1) The degree of liver damage in the experimental animals was determined by measuring ALT and AST values in blood(see, Biol. Pharm. Bull., 20, 4, 381-385, 1997; Toxicology and Applied Pharmacology, 95, 1-11, 1988), and the hepatoprotective activity was calculated based on the following formula(see, Planta Medica, 55, 127-132, 1989). At this time, the hepatoprotective activity can also be calculated based on the same formula by replacing ALT value with AST value. [formula]
The hepatoprotective effect of the compound of the present invention was identified according to a known procedure(see, Koji Hase et al., Biol. Pharm. Bull., 20, 4, 381-385, 1997), and the protocol may be described in brief as follows.
Rats(SD, male, 180˜200 g) as the test animal were allowed in a condition of temperature 22±1° C. and relative humidity 60±5%. Feed and water were provided with no restriction while light and darkness were changed at an interval of 12 hours.
The compound of the present invention was suspended in a solvent corn oil, and this suspension was administered in a dose of 2 ml/kg. Each group included 8 test animals, and the test compound was orally administered for once per animal. After 30 minutes from the administration of the test compound, D-galactosamine solution(concentration: 200 mg/ml) in physiological saline was intraperitoneally injected in a dose of 2 ml/kg. As the control compounds, silymarin and DDB were selected.
(§2) The test animals were provided with no feed and sufficient water for 24 hours from the administration of D-galactosamine. […] This blood was centrifuged to obtain sera. ALT and AST values in the sera were measured using blood chemistry analyzer(Vitalab, Selectra II, Merck). The statistical significance for the test result of each group was examined based on Student's t-test, and the result was recognized as having a statistical significance when its P value is less than 5%.

[2] = tested on: Liver Injuries caused by Thioacetamide in Mice; assay: Inhibitory effect against liver injuries caused by thioacetamide in mice; assay type: in vivo, Mice (ICR, male); conditions: thioacetamide i.p., serum 24 h
Excerpt: The hepatoprotective effect of the compound of formula (1) was also identified by thioacetamide model(see, Masuda Yasusuke and Nakayama Nobue, Biochemical Pharmacology, 31, 17, 2713-2725, 1982; Liu Jie et al., Acta Pharmacologica Sinica, 16, 2, 97-102, 1995; Story D. L. et al., J. Tox. Environ. Health, 11, 483-501, 1983; Gomez-Lechon M. J. et al., Xenobiotica, 18, 6, 725-735, 1988) which is frequently used as an experimental model for liver injuries. This model has been established based on the phenomena that thioacetamide activated by P-450 S-oxidation inordinately increases the influx of calcium ion(Ca^++) into the liver cells, which in turn activates calcium ion-dependent phospholipase, protease and endonuclease, changes the cell frame through the calcium ion, exhausts ATP, and consequently destroys the liver cells. Thioacetamide also damages ureogenesis pathway in liver, and the metabolite of thioacetamide inhibits the transfer of RNA and makes the liver cell membranes unstable. A series of these activities results in the destruction of the liver cells, which in turn causes the increase of ALT and AST values in blood and also causes histologically the centrilobular necrosis.
as §1
The hepatoprotective effect of the compound of the present invention was identified according to a known procedure(see, Landon, E. J. et al., Biochemical Pharmacology, 35, 4, 697-705, 1986), and the protocol may be described in brief as follows.
Mice(ICR, male, 27˜35 g) as the test animal were allowed in a condition of temperature 22±1° C. and relative humidity 60±5%. Feed and water were provided with no restriction while light and darkness were changed at an interval of 12 hours.
The compound of the present invention was suspended in a solvent corn oil, and this suspension was administered in a dose of 10 ml/kg. Each group included 8 test animals, and the test compound was orally administered once per animal. After 1 hour from the administration of the test compound, thioacetamide solution(concentration: 90 mg/ml) in physiological saline was intraperitoneally injected in a dose of 1 ml/kg. As the control compounds, silymarin and DDB were selected.
as §2, with “thioacetamide.” for “D-galactosamine.”

Structure (SMILES)	Inhibitory Effect against Liver Injuries (%) ALT ([1]; dose 16.7 mg/kg p.o. once) [%]	Inhibitory Effect against Liver Injuries (%) ALT ([1]; dose 50 mg/kg p.o. once) [%]	Inhibitory Effect against Liver Injuries (%) ALT ([2]; dose 50 mg/kg p.o. once) [%]	Inhibitory Effect against Liver Injuries (%) ALT ([1]; dose 5.6 mg/kg p.o. once) [%]	Inhibitory Effect against Liver Injuries(%) AST ([1]; dose 5.6 mg/kg p.o. once) [%]	Inhibitory Effect against Liver Injuries(%) AST ([1]; dose 16.7 mg/kg p.o. once) [%]	Inhibitory Effect against Liver Injuries(%) AST ([1]; dose 50 mg/kg p.o. once) [%]	Inhibitory Effect against Liver Injuries (%) ALT ([2]; dose 16.7 mg/kg p.o. once) [%]	Inhibitory Effect against Liver Injuries(%) AST ([2]; dose 16.7 mg/kg p.o. once) [%]	Inhibitory Effect against Liver Injuries(%) AST ([2]; dose 50 mg/kg p.o. once) [%]
O/N=C/c1ccc2c(c1)OCO2 [Compound 1]	5	12	99	–	–	–	–	–	–	–
COc1cc(/C=N/OCc2ccccn2)cc2c1OCO2 [Compound 13, 6-(2-((2-pyridyl)methoxy)-2-azavinyl)-4-methoxybenzo [d]1,3-dioxolane]	35	67	91	34	–	–	–	–	–	–
c1csc(-c2ccc3c(c2)OCO3)n1 [Compound 21, 2-(benzo[3,4-d]1,3-dioxolan-5-yl)-1,3-thiazole]	32	56	98	27	29	29	46	54	37	98
CC(=O)SCC(=O)c1ccc2c(c1)OCO2 [Compound 28, 1-(benzo[3,4-d]1,3-dioxolan-5-yl)-2-acetylthioethan-1-one]	51	52	87	42	48	55	55	76	89	94
COC(=O)c1cc(OC)c2c(c1-c1c(C(=O)OC)cc(OC)c3c1OCO3)OCO2 [DDB, reference compound]	–	28	21	–	–	–	12	–	–	−4

From patent publication US6693126B2, “Dihydroxyphenyl derivatives for hepatoprotection and treatment of liver diseases” (Choongwae Pharm. Co., Ltd., priority 2000, dated 2004)
